# Measurements from ChEMBL document CHEMBL1201862, “PubChem BioAssay data set” (2004).
#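 Cultured in 96-well plates, cells were exposed to test compound for 48 hours across five concentrations. GI50: concentration for 50% inhibition of growth.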 Activity calls are given as the source filed them. Cut-off read from the data, not from the text of the source: active = GI50 up to about 1.1 µM and inactive = higher.
# Assays:
# Assay in all cases: DTP human tumour cell line panel, 48 h
# [1] = test system: SR
# [2] = test system: SK-MEL-28
# [3] = test system: IGROV-1
# [4] = test system: NCI-H460
# [5] = test system: NCI-H23
# [6] = test system: T47D
# [7] = test system: COLO 205
# [8] = test system: SF-268
# [9] = test system: TK-10
# [10] = test system: PC-3
# [11] = test system: MDA-N
# [12] = test system: HT-29
# [13] = test system: SF-295
# [14] = test system: MDA-MB-435
# [15] = test system: UACC-257
# [16] = test system: KM12
# [17] = test system: BT-549
# [18] = test system: HOP-62
# [19] = test system: SNB-75
# [20] = test system: CCRF-CEM
SMILES,GI50 [1],GI50 [2],GI50 [3],GI50 [4],GI50 [5],GI50 [6],GI50 [7],GI50 [8],GI50 [9],GI50 [10],GI50 [11],GI50 [12],GI50 [13],GI50 [14],GI50 [15],GI50 [16],GI50 [17],GI50 [18],GI50 [19],GI50 [20]
CC[C@H]1C=CCC[C@@]2(C[C@@H]3CC[C@@H]4[C@H](C(=O)OCCCCCCCCCCCCCCCC(=O)N(CCCN)C[C@@H](O)CCN)[C@]5(CCC[C@@H](C)O5)NC(=[N+]34)N2)O1,0.0802 µM (active),1.27 µM (inactive),0.239 µM (active),0.443 µM (active),0.92 µM (active),0.824 µM (active),0.316 µM (active),0.544 µM (active),1.44 µM (inactive),0.385 µM (active),0.127 µM (active),0.299 µM (active),0.518 µM (active),0.0524 µM (active),0.122 µM (active),0.447 µM (active),0.807 µM (active),1.13 µM (inactive),,
c1ccc(CNc2c3c(nc4ccccc24)CCC3)cc1,13.4 µM (inactive),11.8 µM (inactive),15.8 µM (inactive),10.6 µM (inactive),16.3 µM (inactive),12.7 µM (inactive),10.4 µM (inactive),21.7 µM (inactive),13 µM (inactive),13.2 µM (inactive),14.7 µM (inactive),5.52 µM (inactive),6.84 µM (inactive),15.3 µM (inactive),13.6 µM (inactive),15.6 µM (inactive),17.9 µM (inactive),8.97 µM (inactive),18 µM (inactive),3.79 µM (inactive)
CCOC(=O)C1(CC(=O)O)CCCC1=O (configuration not stated),> 100 µM (inactive),> 100 µM (inactive),> 100 µM (inactive),> 100 µM (inactive),> 100 µM (inactive),> 100 µM (inactive),> 100 µM (inactive),> 100 µM (inactive),> 100 µM (inactive),> 100 µM (inactive),> 100 µM (inactive),> 100 µM (inactive),> 100 µM (inactive),> 100 µM (inactive),> 100 µM (inactive),> 100 µM (inactive),> 100 µM (inactive),> 100 µM (inactive),> 100 µM (inactive),> 100 µM (inactive)
O=C(Cc1ccc([N+](=O)[O-])cc1)OCC#CCOC(=O)Cc1ccc([N+](=O)[O-])cc1,> 10 µM (inactive),,> 10 µM (inactive),> 10 µM (inactive),> 10 µM (inactive),> 10 µM (inactive),,> 10 µM (inactive),> 10 µM (inactive),> 10 µM (inactive),> 10 µM (inactive),> 10 µM (inactive),> 10 µM (inactive),> 10 µM (inactive),> 10 µM (inactive),> 10 µM (inactive),> 10 µM (inactive),,> 10 µM (inactive),> 10 µM (inactive)
COc1nc2c(c(=O)n1C)N[C@H]1[C@H](OC(C)=O)[C@@H](OC(C)=O)CO[C@H]1N2,> 100 µM (inactive),> 100 µM (inactive),> 100 µM (inactive),> 100 µM (inactive),,> 100 µM (inactive),> 100 µM (inactive),> 100 µM (inactive),> 100 µM (inactive),> 100 µM (inactive),> 100 µM (inactive),> 100 µM (inactive),> 100 µM (inactive),> 100 µM (inactive),> 100 µM (inactive),> 100 µM (inactive),> 100 µM (inactive),> 100 µM (inactive),> 100 µM (inactive),> 10 µM (inactive)
Clc1ccc(-c2nnc(-c3c(Cl)c(Cl)c(Cl)c(Cl)c3-c3nc4ccccc4[nH]3)o2)cc1,34.3 µM (inactive),> 100 µM (inactive),30.2 µM (inactive),44 µM (inactive),45 µM (inactive),21 µM (inactive),52.2 µM (inactive),> 100 µM (inactive),,97.5 µM (inactive),53.5 µM (inactive),98.9 µM (inactive),48.5 µM (inactive),> 100 µM (inactive),> 100 µM (inactive),97.5 µM (inactive),70.1 µM (inactive),> 100 µM (inactive),68.7 µM (inactive),59.4 µM (inactive)
NC1=NC2(COC(c3ccccc3)(c3ccccc3)c3ccccc3)OC(COC(c3ccccc3)(c3ccccc3)c3ccccc3)C(O)C2O1 (configuration not stated),32.9 µM (inactive),> 100 µM (inactive),21.8 µM (inactive),,23.1 µM (inactive),53.1 µM (inactive),67.1 µM (inactive),,18.9 µM (inactive),11.2 µM (inactive),85.1 µM (inactive),65 µM (inactive),46.5 µM (inactive),65.8 µM (inactive),51.2 µM (inactive),21.6 µM (inactive),41.3 µM (inactive),> 100 µM (inactive),< 0.01 µM (active),21.3 µM (inactive)
CC1=CCC[C@H]2[C@](C)(CC3=CC(=O)C4SCCSC4C3=O)[C@@H](C)CC[C@]12C (some centres not stated),11.1 µM (inactive),18 µM (inactive),32 µM (inactive),20 µM (inactive),13.2 µM (inactive),> 100 µM (inactive),17.7 µM (inactive),,,13.5 µM (inactive),11.4 µM (inactive),,10.9 µM (inactive),8.09 µM (inactive),19.3 µM (inactive),29 µM (inactive),20.6 µM (inactive),15 µM (inactive),27.7 µM (inactive),11 µM (inactive)
O=C1Nc2cc([N+](=O)[O-])ccc2N/C1=C/C(=O)c1ccc(Cl)cc1,12.2 µM (inactive),10.6 µM (inactive),12.3 µM (inactive),8.34 µM (inactive),14.2 µM (inactive),13.5 µM (inactive),24.4 µM (inactive),11.7 µM (inactive),3.9 µM (inactive),16.6 µM (inactive),24.3 µM (inactive),15.3 µM (inactive),13.3 µM (inactive),18.7 µM (inactive),27.5 µM (inactive),14.4 µM (inactive),5.27 µM (inactive),,20.1 µM (inactive),10.5 µM (inactive)
CC(C)(CC(O)C#N)/[N+]([O-])=[N+](\[O-])C(C)(C)CC(O)C#N (configuration not stated),15.2 µM (inactive),26.6 µM (inactive),21.2 µM (inactive),36.1 µM (inactive),25.4 µM (inactive),27.5 µM (inactive),14.8 µM (inactive),23.4 µM (inactive),26.7 µM (inactive),28.2 µM (inactive),20.7 µM (inactive),28.4 µM (inactive),35.7 µM (inactive),32.9 µM (inactive),20.4 µM (inactive),30.7 µM (inactive),20.6 µM (inactive),19.4 µM (inactive),23.7 µM (inactive),
CC12CCC(C(=O)n3c1nc1ccccc13)C(C)(C)O2 (configuration not stated),> 100 µM (inactive),> 100 µM (inactive),> 100 µM (inactive),,> 100 µM (inactive),> 100 µM (inactive),> 100 µM (inactive),> 100 µM (inactive),> 100 µM (inactive),> 100 µM (inactive),> 100 µM (inactive),> 100 µM (inactive),> 100 µM (inactive),> 100 µM (inactive),> 100 µM (inactive),> 100 µM (inactive),> 100 µM (inactive),> 100 µM (inactive),15.6 µM (inactive),> 100 µM (inactive)
CCCC(=O)OCC1OC(n2cc(F)c(=O)[nH]c2=O)CC1OC(=O)CCC (configuration not stated),0.034 µM (active),> 6.68 µM (inactive),> 10 µM (inactive),0.119 µM (active),0.278 µM (active),> 6.15 µM (inactive),> 6.5 µM (inactive),0.0368 µM (active),2.25 µM (inactive),1.55 µM (inactive),1.25 µM (inactive),,0.127 µM (active),3.95 µM (inactive),3.79 µM (inactive),> 5.02 µM (inactive),0.376 µM (active),0.0684 µM (active),,0.0295 µM (active)
COc1ccc2c(c1)[C@@]13CCCC[C@H]1[C@@H](C2)N(C)CC3=O,12.4 µM (inactive),16.1 µM (inactive),17.4 µM (inactive),20.8 µM (inactive),17.5 µM (inactive),17.5 µM (inactive),17.3 µM (inactive),17.2 µM (inactive),19 µM (inactive),14.8 µM (inactive),15.3 µM (inactive),21.5 µM (inactive),64.9 µM (inactive),19 µM (inactive),16.5 µM (inactive),18.1 µM (inactive),17.4 µM (inactive),> 100 µM (inactive),,19.2 µM (inactive)
[N-]=[N+]=CC(=O)C1CCN(c2ccccc2)C1=O (configuration not stated),> 10 µM (inactive),> 10 µM (inactive),> 10 µM (inactive),> 10 µM (inactive),> 10 µM (inactive),> 10 µM (inactive),> 10 µM (inactive),> 10 µM (inactive),> 10 µM (inactive),> 10 µM (inactive),> 10 µM (inactive),> 10 µM (inactive),> 10 µM (inactive),> 10 µM (inactive),> 10 µM (inactive),> 10 µM (inactive),> 10 µM (inactive),> 10 µM (inactive),,> 10 µM (inactive)
Cc1ccc(NC(=O)/C(Cc2cc(=O)oc3cc(O)ccc23)=N\NC(C)(C)C)cc1C,> 100 µM (inactive),> 100 µM (inactive),,> 100 µM (inactive),> 100 µM (inactive),> 100 µM (inactive),> 100 µM (inactive),> 100 µM (inactive),,> 100 µM (inactive),> 100 µM (inactive),> 100 µM (inactive),> 100 µM (inactive),> 100 µM (inactive),> 100 µM (inactive),> 100 µM (inactive),> 100 µM (inactive),,,> 100 µM (inactive)
